Experimental data taken from US20210070731A1, “TRICYCLIC KINASE INHIBITORS AND USE THEREOF” (priority 2019, published 2021).
Counter-ions that a name gives are not always drawn.

Columns and labels:
Type in all cases: biochemical
Settings in all cases: 100 uM ATP, 3 hr incubation, four-parameter fit
CLK1 = biological target: T1, CLK1 (Homo sapiens, UniProt P49759); test: Phosphorylation assay ([γ-32P]-ATP, P81 paper), CLK1
T1 construct: purchased SignalChem
Excerpt: (§1) Kinase activity and inhibition can be measured using binding assays as well as phosphorylation assays. In the binding assays, e.g. KinaseSeeker (Luceome Biotechnologies, Tucson, Ariz.) or Kinomescan (Eurofins), the competitive displacement of a kinase active site binding probe by a compound is detected and serves as a measure of compound inhibition. In phosphorylation assays, e.g. radioactivity assays or ADP-Glo (Promega) assays, the phosphorylation of a peptide or protein substrate is used to evaluate enzyme activity, and the reduction of phosphorylation in presence of a compounds serves as a measure of compound inhibition. The inhibitor compounds described herein are screened in the following manner.
(§2) For phosphorylation assays, 30 ng of the active kinase (SignalChem) in kinase assay buffer was incubated with either inhibitor in DMSO or DMSO (no inhibitor control). Reaction was started by the addition of 10 mM magnesium sulfate, 100 uM [γ-^32P]-ATP and appropriate concentration of the relevant peptide substrate. After 3 hr incubation, the reaction was terminated by spotting 25 μl of the reaction mixture onto P81 paper strips. The paper strips were air dried, washed three times with 0.85% phosphoric acid and finally with acetone. The P81 paper was immersed in 10 mL of scintillation cocktail, and the radioactive counts were measured. For dose dependent curves, kinases were treated at varying concentrations of the compound in activity assays and IC50 values were determined using a four-parameter fit. The IC50 values against a select set of kinases is given below.

NUAK1 = biological target: T2, NUAK1 (Homo sapiens, UniProt O60285); test: Phosphorylation assay ([γ-32P]-ATP, P81 paper), NUAK1
T2 construct: purchased SignalChem
T2 sequence (O60285 1-661): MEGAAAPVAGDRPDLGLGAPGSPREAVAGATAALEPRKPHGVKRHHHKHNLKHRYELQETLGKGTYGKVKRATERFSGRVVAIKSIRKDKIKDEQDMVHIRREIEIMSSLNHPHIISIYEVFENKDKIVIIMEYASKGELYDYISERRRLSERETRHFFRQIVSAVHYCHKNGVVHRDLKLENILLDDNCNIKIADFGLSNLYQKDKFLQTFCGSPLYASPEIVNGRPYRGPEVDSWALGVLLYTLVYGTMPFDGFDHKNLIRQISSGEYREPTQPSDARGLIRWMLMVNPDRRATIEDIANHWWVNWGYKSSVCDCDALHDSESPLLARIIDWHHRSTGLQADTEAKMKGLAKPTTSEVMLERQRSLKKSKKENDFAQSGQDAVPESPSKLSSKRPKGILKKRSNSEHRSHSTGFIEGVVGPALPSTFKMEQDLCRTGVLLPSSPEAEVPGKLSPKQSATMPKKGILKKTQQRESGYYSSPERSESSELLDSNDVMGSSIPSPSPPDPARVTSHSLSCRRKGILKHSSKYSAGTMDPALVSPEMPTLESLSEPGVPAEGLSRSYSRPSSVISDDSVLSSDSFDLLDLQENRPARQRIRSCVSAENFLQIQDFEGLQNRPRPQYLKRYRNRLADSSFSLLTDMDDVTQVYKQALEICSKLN
Excerpt: as §1, §2

CLK2 = biological target: T3, CLK2 (Homo sapiens, UniProt P49760); test: Phosphorylation assay ([γ-32P]-ATP, P81 paper), CLK2
T3 construct: purchased SignalChem
T3 sequence (P49760 whole entry): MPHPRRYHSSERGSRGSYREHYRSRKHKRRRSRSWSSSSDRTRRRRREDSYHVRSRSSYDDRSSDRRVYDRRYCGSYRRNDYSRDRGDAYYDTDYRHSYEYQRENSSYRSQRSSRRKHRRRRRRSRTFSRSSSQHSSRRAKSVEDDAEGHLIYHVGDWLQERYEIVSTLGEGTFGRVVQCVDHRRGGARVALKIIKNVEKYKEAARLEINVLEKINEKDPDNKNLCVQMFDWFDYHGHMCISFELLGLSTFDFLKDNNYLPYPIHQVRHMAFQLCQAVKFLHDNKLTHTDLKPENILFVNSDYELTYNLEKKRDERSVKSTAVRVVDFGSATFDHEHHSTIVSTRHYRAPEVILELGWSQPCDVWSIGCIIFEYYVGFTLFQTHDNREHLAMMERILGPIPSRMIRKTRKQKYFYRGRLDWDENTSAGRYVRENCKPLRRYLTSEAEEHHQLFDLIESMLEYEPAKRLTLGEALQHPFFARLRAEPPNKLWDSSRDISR
Excerpt: as §1, §2

SIK2 = biological target: T4, SIK2 (Homo sapiens, UniProt Q9H0K1); test: Phosphorylation assay ([γ-32P]-ATP, P81 paper), SIK2
T4 construct: purchased SignalChem
T4 sequence (Q9H0K1 whole entry): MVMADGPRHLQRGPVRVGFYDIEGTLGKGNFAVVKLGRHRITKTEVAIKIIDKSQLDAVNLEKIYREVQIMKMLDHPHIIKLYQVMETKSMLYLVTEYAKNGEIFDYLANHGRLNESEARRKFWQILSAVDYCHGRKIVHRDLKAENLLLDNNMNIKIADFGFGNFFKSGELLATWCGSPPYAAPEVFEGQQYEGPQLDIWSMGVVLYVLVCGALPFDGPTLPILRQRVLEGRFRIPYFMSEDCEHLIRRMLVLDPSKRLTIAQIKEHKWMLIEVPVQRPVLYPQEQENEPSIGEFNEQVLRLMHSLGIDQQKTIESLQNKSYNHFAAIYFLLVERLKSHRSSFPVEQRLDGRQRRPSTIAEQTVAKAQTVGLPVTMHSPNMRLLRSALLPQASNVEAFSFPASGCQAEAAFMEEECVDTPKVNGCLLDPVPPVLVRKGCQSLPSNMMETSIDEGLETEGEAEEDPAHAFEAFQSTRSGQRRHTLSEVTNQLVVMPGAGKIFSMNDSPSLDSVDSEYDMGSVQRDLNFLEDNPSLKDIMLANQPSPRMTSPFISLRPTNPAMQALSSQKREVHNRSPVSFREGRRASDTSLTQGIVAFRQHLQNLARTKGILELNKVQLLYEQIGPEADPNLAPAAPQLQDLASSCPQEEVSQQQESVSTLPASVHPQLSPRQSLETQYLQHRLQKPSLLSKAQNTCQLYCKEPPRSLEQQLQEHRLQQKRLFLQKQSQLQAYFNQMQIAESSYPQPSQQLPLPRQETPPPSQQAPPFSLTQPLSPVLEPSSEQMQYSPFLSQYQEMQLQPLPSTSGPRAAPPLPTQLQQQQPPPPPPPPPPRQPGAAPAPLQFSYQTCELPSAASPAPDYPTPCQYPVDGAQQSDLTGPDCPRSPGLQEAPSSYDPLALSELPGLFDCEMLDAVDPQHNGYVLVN
Excerpt: as §1, §2

NUAK2 = biological target: T5, NUAK2 (Homo sapiens, UniProt Q9H093); test: Phosphorylation assay ([γ-32P]-ATP, P81 paper), NUAK2
T5 construct: purchased SignalChem
T5 sequence (Q9H093 1-628): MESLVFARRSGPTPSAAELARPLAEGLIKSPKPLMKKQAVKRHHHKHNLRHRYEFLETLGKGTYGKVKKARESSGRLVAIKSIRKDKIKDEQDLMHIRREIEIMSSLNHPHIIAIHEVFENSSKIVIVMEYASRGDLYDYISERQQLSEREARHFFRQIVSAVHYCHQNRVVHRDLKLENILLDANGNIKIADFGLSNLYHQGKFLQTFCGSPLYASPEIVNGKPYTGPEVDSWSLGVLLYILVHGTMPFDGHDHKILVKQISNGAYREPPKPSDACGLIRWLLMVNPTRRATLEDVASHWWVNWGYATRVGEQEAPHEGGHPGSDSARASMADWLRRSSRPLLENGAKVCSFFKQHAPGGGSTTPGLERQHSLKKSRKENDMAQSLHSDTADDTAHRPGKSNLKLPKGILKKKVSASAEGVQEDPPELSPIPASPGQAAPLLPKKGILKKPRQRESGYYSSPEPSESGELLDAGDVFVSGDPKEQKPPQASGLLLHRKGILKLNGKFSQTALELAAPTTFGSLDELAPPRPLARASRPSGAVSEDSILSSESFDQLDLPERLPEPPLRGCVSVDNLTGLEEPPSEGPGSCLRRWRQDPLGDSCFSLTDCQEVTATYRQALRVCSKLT
Excerpt: as §1, §2

T1 sequence (P49759 whole entry): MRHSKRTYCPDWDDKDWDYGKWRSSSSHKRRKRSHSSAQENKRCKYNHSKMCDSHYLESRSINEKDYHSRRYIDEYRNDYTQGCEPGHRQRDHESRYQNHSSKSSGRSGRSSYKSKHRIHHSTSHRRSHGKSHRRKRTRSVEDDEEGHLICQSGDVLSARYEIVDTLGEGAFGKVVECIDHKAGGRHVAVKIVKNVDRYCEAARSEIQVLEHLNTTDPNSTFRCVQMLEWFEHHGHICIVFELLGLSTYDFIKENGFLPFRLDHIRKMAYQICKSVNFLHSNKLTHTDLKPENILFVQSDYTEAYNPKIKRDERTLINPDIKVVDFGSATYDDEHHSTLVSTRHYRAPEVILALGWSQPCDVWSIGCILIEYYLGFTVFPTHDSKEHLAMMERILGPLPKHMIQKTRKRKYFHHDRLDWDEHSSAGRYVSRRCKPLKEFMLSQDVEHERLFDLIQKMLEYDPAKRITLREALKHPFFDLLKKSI

IC50 (CLK1) [nM] | IC50 (NUAK1) [nM] | IC50 (CLK2) [nM] | IC50 (SIK2) [nM] | IC50 (NUAK2) [nM] | SMILES
2700 | 1300 | 1500 | 18600 | 4600 | CN1Cc2ccccc2N(C)c2cc(Nc3ccn(C4CCNCC4)n3)ncc21 [Compound 14, 5,11-dimethyl-N-(1-(piperidin-4-yl)-1H-pyrazol-3-yl)-10,11-dihydro-5H-benzo[e]pyrido[3,4-b][1,4]diazepin-3-amine]
> 50000 | 1300 | 9500 | 690 | 7000 | CN1Cc2cnc(Nc3ccn(C4CCNCC4)n3)cc2N(C)c2ccccc21 [Compound 24, 5,10-dimethyl-N-(1-(piperidin-4-yl)-1H-pyrazol-3-yl)-10,11-dihydro-5H-benzo[b]pyrido[4,3-e][1,4]diazepin-3-amine]
57800 | 130 | 33000 | 1500 | 340 | CN1C(=O)c2ccccc2N(C)c2cc(Nc3ccn(C4CCNCC4)n3)ncc21 [Compound 30, 5,11-dimethyl-3-((1-(piperidin-4-yl)-H-pyrazol-3-yl)amino)-5,11-dihydro-10H-benzo[e]pyrido[3,4-b][1,4]diazepin-10-one TFA Salt]
